# System: mouse model of type II diabetes with pancreatic islet damage and obesity (ICR mice, STZ and high-fat diet)
# Test: Blood glucose in mouse type II diabetes model with pancreatic islet damage and obesity (limonoid compound, alogliptin or combination)
# Assay type: in vivo
# Settings: single administration 0.5 g/kg per day by gavage, two weeks, 1 h after the last administration, mean ± SD
# Excerpt: In this example, a mouse model of type II diabetes with pancreatic islet damage and obesity was established by multiple modeling ICR mice with a small dose of streptozotocin (STZ), following with continuous high-fat diets (referring to literature: Zhang Jiyuan et al, Study on the effect of three plant extracts on improving glucose and lipid metabolism in type 2 diabetic mice, Food and Machinery, 2016, 32 (12): 142-147). […]
# Experimental grouping: 15 male mice were randomly selected as the normal control group, and the remaining mice were subjected to a high-fat diet (high-fat diet formula: cholesterol 1%, egg yolk powder 10%, lard oil 10%, and basic feed 79%, for establishing an obesity mouse model) for consecutive 4 weeks and intraperitoneal injection of STZ at a dose of 35 mg/kg for three consecutive days. After one week, the mice were subject to 24 hours of fasting and water deprivation, their fasting blood glucose was measured, and the mice with a blood glucose level of 15 to 25 mmol/L were selected and undifferentiatedly grouped and used in the experiment, continuously subjected to the high-fat diet, 15 mice in each group, and subjected to blood sampling and detection of indicators after 2 weeks of administration. […]
smiles,measurement,value
"Cn1c(=O)cc(N2CCC[C@@H](N)C2)n(Cc2ccccc2C#N)c1=O [Alogliptin, alogliptin]",Blood glucose value,14.5 ± 2.8 mmol/L

# Source: US20220226283A1, “COMBINATION PRODUCT CONTAINING LIMONOID COMPOUND AND DPP-4 INHIBITOR” (ZHEJIANG YANGSHENGTANG INSTITUTE OF NATURAL MEDICATION CO., …, priority 2019, published 2022)
